Results reported in patent publication US9751887B2, “Imidazo[1,2-b]pyridazine derivatives as kinase inhibitors” (Daiichi Sankyo Company, Limited, priority 2012, dated 2017).

What was measured:
[1] = system: HCC78 cells having ROS1 fusion gene; test: HCC78 cell growth assay (CellTiter-Glo); type: cell-based; conditions: Homo sapiens, HCC78, 72 h, 72 hours culture, 2% FBS medium, luminescence, four separate measurements; read-out: growth inhibitory effect on HCC78 cells having ROS1 fusion gene IC50
[2] = target: T1, ROS1 (Homo sapiens, UniProt P08922); test: ROS1 autophosphorylation inhibitory activity evaluation (ADP-Glo); type: biochemical; conditions: 200 nM inactive ROS1, ATP 1 mM, 25° C. 1.5 hours, ADP generated, four separate measurements
T1 construct: purchased Carna Biosciences 08-163
In short: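 ROS1 autophosphorylation ran with 1 mM final ATP in 50 mM HEPES pH 7.5, 10 mM MgCl2, 0.01% Brij-58, 2.5 mM DTT for 1.5 h at 25° C. ADP generated was read by ADP-Glo luminescence. IC50 values were obtained by curve fitting.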

[3] = target: T1, ROS1; test: ROS1 kinase inhibitory activity evaluation (mobility shift, EZ Reader II); type: biochemical; conditions: ROS1 25 pg/μL, FL-Peptide 22 substrate, three separate measurements
Experimental: Next, a substrate reaction solution was prepared. […] Then, the reaction stop solution was added thereto at a concentration of 40 μL/well. Substrate phosphorylation intensity was measured using EZ Reader II (Caliper Life Sciences).

T1 sequence (P08922 28-2347): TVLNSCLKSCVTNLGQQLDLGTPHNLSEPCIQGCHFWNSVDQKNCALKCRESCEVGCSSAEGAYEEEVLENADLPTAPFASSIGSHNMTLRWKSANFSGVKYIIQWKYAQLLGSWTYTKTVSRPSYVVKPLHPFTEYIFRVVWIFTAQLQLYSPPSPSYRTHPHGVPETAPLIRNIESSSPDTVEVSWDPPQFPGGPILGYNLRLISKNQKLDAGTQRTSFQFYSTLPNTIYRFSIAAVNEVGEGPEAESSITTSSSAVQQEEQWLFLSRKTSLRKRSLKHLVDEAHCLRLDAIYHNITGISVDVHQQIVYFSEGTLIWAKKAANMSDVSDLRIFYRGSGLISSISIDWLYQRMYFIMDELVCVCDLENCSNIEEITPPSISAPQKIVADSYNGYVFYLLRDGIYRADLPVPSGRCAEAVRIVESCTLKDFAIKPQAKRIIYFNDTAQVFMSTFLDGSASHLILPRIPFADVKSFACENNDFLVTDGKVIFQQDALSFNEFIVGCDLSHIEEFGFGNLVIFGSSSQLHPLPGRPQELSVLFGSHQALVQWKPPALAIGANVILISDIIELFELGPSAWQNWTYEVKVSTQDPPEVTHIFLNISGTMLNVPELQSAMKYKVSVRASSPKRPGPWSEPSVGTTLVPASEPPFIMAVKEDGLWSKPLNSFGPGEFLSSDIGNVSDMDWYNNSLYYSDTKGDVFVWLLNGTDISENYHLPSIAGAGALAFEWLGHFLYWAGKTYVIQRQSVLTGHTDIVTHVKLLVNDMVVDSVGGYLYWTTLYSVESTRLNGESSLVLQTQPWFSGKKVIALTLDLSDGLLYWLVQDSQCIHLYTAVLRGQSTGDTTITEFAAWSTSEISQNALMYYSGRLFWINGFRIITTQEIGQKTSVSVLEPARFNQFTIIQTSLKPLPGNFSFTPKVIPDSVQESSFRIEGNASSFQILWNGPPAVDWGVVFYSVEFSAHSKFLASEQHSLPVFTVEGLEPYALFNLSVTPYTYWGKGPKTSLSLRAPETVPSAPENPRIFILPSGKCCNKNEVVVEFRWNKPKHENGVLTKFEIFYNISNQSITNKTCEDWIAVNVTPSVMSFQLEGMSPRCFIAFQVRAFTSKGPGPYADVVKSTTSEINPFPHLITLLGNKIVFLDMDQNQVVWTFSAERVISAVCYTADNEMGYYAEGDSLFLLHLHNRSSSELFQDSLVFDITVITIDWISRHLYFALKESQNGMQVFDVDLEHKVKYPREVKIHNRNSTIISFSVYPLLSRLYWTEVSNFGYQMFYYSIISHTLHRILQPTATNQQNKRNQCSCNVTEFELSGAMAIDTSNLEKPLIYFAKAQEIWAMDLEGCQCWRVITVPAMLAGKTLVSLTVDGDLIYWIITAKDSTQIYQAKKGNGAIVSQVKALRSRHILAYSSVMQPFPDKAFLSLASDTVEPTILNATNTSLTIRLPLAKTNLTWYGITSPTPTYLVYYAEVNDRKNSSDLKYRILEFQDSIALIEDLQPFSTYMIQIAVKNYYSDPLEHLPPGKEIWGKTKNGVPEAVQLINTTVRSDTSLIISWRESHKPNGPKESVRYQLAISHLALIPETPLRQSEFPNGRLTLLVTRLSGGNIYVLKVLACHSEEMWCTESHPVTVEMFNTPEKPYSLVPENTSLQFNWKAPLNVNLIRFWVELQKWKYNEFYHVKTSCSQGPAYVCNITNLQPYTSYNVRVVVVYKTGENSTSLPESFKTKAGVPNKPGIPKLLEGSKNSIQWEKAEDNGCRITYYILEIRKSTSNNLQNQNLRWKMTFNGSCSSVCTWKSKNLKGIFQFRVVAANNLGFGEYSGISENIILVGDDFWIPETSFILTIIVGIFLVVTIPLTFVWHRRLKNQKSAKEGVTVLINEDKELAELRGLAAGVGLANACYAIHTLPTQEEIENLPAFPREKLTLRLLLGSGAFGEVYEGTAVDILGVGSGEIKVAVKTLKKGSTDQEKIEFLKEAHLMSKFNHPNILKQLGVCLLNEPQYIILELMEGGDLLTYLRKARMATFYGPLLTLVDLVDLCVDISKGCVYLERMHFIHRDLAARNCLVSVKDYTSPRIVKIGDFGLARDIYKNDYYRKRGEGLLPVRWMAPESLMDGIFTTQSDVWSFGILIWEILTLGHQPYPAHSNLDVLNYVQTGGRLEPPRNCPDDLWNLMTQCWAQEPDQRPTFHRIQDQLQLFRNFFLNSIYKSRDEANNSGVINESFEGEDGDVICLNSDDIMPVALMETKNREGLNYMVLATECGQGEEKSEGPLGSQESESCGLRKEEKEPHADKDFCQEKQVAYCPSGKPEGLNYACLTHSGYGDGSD

Compound | IC50 [1] [nM] | IC50 [2] [nM] | IC50 [3] [nM]
CN(Cc1cccc(F)c1F)c1ccc2ncc(-c3ccc(N4C[C@@H](N)CC4=O)nc3)n2n1 [Example 132, (4S)-4-Amino-1-[5-[6-[(2,3-difluorophenyl)methyl-methylamino]imidazo[1,2-b]pyridazin-3-yl]-2-pyridyl]pyrrolidin-2-one] | 20 to 100 | 20 to 100 | 1 to 10
CN(Cc1cc(F)ccc1F)c1ccc2ncc(-c3ccc(N4C[C@@H](N)CC4=O)cc3)n2n1 [Example 97, (4S)-4-Amino-1-[4-[6-[(2,5-difluorophenyl)methyl-methylamino]imidazo[1,2-b]pyridazin-3-yl]phenyl]pyrrolidin-2-one] | < 20 | 20 to 100 | 1 to 10
CN(Cc1cccc(F)c1)c1ccc2ncc(-c3ccc(N4CC(C)(N)CC4=O)cc3)n2n1 (single isomer, unassigned) [Example 87, 4-Amino-1-[4-[6-[(3-fluorophenyl)methyl-methylamino]imidazo[1,2-b]pyridazin-3-yl]phenyl]-4-methylpyrrolidin-2-one] | 20 to 100 | 20 to 100 | 1 to 10
CN(Cc1cncc(Cl)c1)c1ccc2ncc(-c3ccc(N4C[C@@H](N)CC4=O)cc3)n2n1 [Example 122, (4S)-4-Amino-1-[4-[6-[(5-chloro-3-pyridyl)methyl-methylamino]imidazo[1,2-b]pyridazin-3-yl]phenyl]pyrrolidin-2-one] | 20 to 100 | 20 to 100 | 1 to 10
CN[C@H]1CC(=O)N(c2ccc(-c3cnc4ccc(O[C@H](C)c5cccc(F)c5)nn34)cc2)C1 [Example 80, (4S)-1-[4-[6-[(1R)-1-(3-Fluorophenyl)ethoxy]imidazo[1,2-b]pyridazin-3-yl]phenyl]-4-(methylamino)pyrrolidin-2-one] | 20 to 100 | < 20 | < 1
N[C@H]1CC(=O)N(c2ccc(-c3cnc4ccc(OCc5cccc(F)c5)nn34)cc2)C1 [Example 76, (4S)-4-Amino-1-[4-[6-[(3-fluorophenyl)methoxy]imidazo[1,2-b]pyridazin-3-yl]phenyl]pyrrolidin-2-one] | 20 to 100 | < 20 | < 1
CN(Cc1cncc(F)c1)c1ccc2ncc(-c3ccc(N4C[C@@H](N)CC4=O)cc3)n2n1 [Example 118, (4S)-4-Amino-1-[4-[6-[(5-fluoro-3-pyridyl)methyl-methylamino]imidazo[1,2-b]pyridazin-3-yl]phenyl]pyrrolidin-2-one] | < 20 | < 20 | 1 to 10
C[C@@H](Oc1ccc2ncc(-c3ccc(N4C[C@@H](N(C)C)CC4=O)cc3)n2n1)c1cccc(F)c1 [Example 135, (4S)-4-(Dimethylamino)-1-[4-[6-[(1R)-1-(3-fluorophenyl)ethoxy]imidazo[1,2-b]pyridazin-3-yl]phenyl]pyrrolidin-2-one] | 100 to 600 | 20 to 100 | 1 to 10
CC1(N)CN(c2ccc(-c3cnc4ccc(OCc5cccc(F)c5)nn34)cc2)C(=O)C12CC2 (stereo not drawn) [Example 77, 7-Amino-5-[4-[6-[(3-fluorophenyl)methoxy]imidazo[1,2-b]pyridazin-3-yl]phenyl]-7-methyl-5-azaspiro[2.4]heptan-4-one] | 20 to 100 | 20 to 100 | < 1
CN(Cc1cncc(F)c1)c1ccc2ncc(-c3ccc(N4CC(C)(N)CC4=O)cc3)n2n1 (single isomer, unassigned) [Example 124, 4-Amino-1-[4-[6-[(5-fluoro-3-pyridyl)methyl-methylamino]imidazo[1,2-b]pyridazin-3-yl]phenyl]-4-methylpyrrolidin-2-one] | < 20 | < 20 | 1 to 10
CN(Cc1cc(F)ccc1F)c1ccc2ncc(-c3ccc(N4C[C@@H](N)CC4=O)nc3)n2n1 [Example 129, (4S)-4-Amino-1-[5-[6-[(2,5-difluorophenyl)methyl-methylamino]imidazo[1,2-b]pyridazin-3-yl]-2-pyridyl]pyrrolidin-2-one] | 20 to 100 | 20 to 100 | 1 to 10
CC(Oc1ccc2ncc(-c3ccc(N4C[C@@H](N)CC4=O)cc3)n2n1)c1cc(F)ccc1-n1nccn1 (stereo partly drawn) [Example 114, (4S)-4-Amino-1-[4-[6-[1-[5-fluoro-2-(triazol-2-yl)phenyl]ethoxy]imidazo[1,2-b]pyridazin-3-yl]phenyl]pyrrolidin-2-one] | 20 to 100 | < 20 | < 1
CN(Cc1cccc(F)c1F)c1ccc2ncc(-c3ccc(N4C[C@@H](N)CC4=O)cc3)n2n1 [Example 98, (4S)-4-Amino-1-[4-[6-[(2,3-difluorophenyl)methyl-methylamino]imidazo[1,2-b]pyridazin-3-yl]phenyl]pyrrolidin-2-one] | 20 to 100 | < 20 | 1 to 10

Further lines, results first:

IC50 [1] [nM] | IC50 [2] [nM] | IC50 [3] [nM] | Compound
< 20 | < 20 | < 1 | C[C@@H](Nc1ccc2ncc(-c3ccc(OC[C@@H]4CCN4)cc3F)n2n1)c1cccc(F)c1 [Example 43, 3-[4-[[(2S)-Azetidin-2-yl]methoxy]-2-fluoro-phenyl]-N-[(1R)-1-(3-fluorophenyl)ethyl]imidazo[1,2-b]pyridazin-6-amine]
100 to 600 | 20 to 100 | 10 to 60 | Cc1cc(N2C[C@@H](N)CC2=O)ccc1-c1cnc2ccc(N[C@H](C)c3ccccc3)nn12 [Example 89, (4S)-4-Amino-1-[3-methyl-1-[6-[[(1R)-1-phenylethyl]amino]imidazo[1,2-b]yl]phenyl]pyrrolidin-2-one]
20 to 100 | < 20 | < 1 | C[C@@H](Nc1ccc2ncc(-c3ccc(OC[C@@H]4CC(F)CN4)cc3)n2n1)c1cccc(F)c1 (stereo in doubt) [Example 33, N-[(1R)-1-(3-Fluorophenyl)ethyl]-3-[4-[[(2S,4S)-4-fluoropyrrolidin-2-yl]methoxy]phenyl]imidazo[1,2-b]pyridazin-6-amine]
20 to 100 | 20 to 100 | 1 to 10 | c1ccc(CNc2ccc3ncc(-c4ccc(O[C@@H]5CCNC5)cc4)n3n2)cc1 [Example 3, N-Benzyl-3-[4-[(3R)-pyrrolidin-3-yl]oxyphenyl]imidazo[1,2-b]pyridazin-6-amine]
20 to 100 | < 20 | 1 to 10 | C[C@H](N)COc1cccc(-c2cnc3ccc(N[C@H](C)c4cccc(F)c4)nn23)c1 [Example 65, 3-[3-[(2S)-2-Aminopropoxy]phenyl]-N-[(1R)-1-(3-fluorophenyl)ethyl]imidazo[1,2-b]pyridazin-6-amine]
100 to 600 | 20 to 100 | 1 to 10 | Fc1cccc(COc2ccc3ncc(-c4ccc(OC[C@H]5CCCN5)cc4)n3n2)c1 [Example 11, 6-[(3-Fluorophenyl)methoxy]-3-[4-[[(2R)-pyrrolidin-2-yl]methoxy]phenyl]imidazo[1,2-b]pyridazine]
20 to 100 | < 20 | 1 to 10 | C[C@@H](N)COc1cccc(-c2cnc3ccc(N[C@H](C)c4cccc(F)c4)nn23)c1 [Example 60, 3-[3-[(2R)-2-Aminopropoxy]phenyl]-N-[(1R)-1-(3-fluorophenyl)ethyl]imidazo[1,2-b]pyridazin-6-amine]
100 to 600 | < 20 | 1 to 10 | C[C@@H](Nc1ccc2ncc(-c3ccc(OCC4CNC4)cc3)n2n1)c1cccc(F)c1 [Example 27, 3-[4-(Azetidin-3-ylmethoxy)phenyl]-N-[(1R)-1-(3-fluorophenyl)ethyl]imidazo[1,2-b]pyridazin-6-amine]
100 to 600 | 20 to 100 | 1 to 10 | CN(Cc1cccc(F)c1)c1ccc2ncc(-c3ccc(OC[C@@H]4CCCN4)cc3)n2n1 [Example 10, N-[(3-Fluorophenyl)methyl]-N-methyl-3-[4-[[(2S)-pyrrolidin-2-yl]methoxy]phenyl]imidazo[1,2-b]pyridazin-6-amine]
100 to 600 | < 20 | 1 to 10 | C[C@@H](Nc1ccc2ncc(-c3ccc(OC[C@@H]4CCCN4)cc3)n2n1)c1ccccc1 [Example 19, N-[(1R)-1-Phenylethyl]-3-[4-[[(2S)-pyrrolidin-2-yl]methoxy]phenyl]imidazo[1,2-b]pyridazin-6-amine]
20 to 100 | 20 to 100 | 1 to 10 | c1ccc(CNc2ccc3ncc(-c4ccc(OC[C@@H]5CCNC5)cc4)n3n2)cc1 [Example 5, N-Benzyl-3-[4-[[(3R)-pyrrolidin-3-yl]methoxy]phenyl]imidazo[1,2-b]pyridazin-6-amine]
< 20 | < 20 | 1 to 10 | C[C@@H](Nc1ccc2ncc(-c3ccc(OCCN(C)C)nc3)n2n1)c1cccc(F)c1 [Example 71, 3-[6-(2-Dimethylaminoethoxy)-3-pyridyl]-N-[(1R)-1-(3-fluorophenyl)ethyl]imidazo[1,2-b]pyridazin-6-amine]
100 to 600 | 20 to 100 | 1 to 10 | C[C@@H](Oc1ccc2ncc(-c3ccc(OC4CCNCC4)cc3)n2n1)c1cccc(F)c1 [Example 15, 6-[(1R)-1-(3-Fluorophenyl)ethoxy]-3-[4-(4-piperidyloxy)phenyl]imidazo[1,2-b]pyridazine]
< 20 | < 20 | < 1 | CNCCOc1ccc(-c2cnc3ccc(N[C@H](C)c4cccc(F)c4)nn23)cn1 [Example 46, N-[(1R)-1-(3-Fluorophenyl)ethyl]-3-[6-[2-(methylamino)ethoxy]-3-pyridyl]imidazo[1,2-b]pyridazin-6-amine]
